Columns and labels:
[1] = molecular target: T1, Human Vitamin D3 Receptor (VDR) (Homo sapiens, UniProt P11473); experiment: Binding affinity to human vitamin D3 receptor (Polarscreen Vitamin D Receptor Competitor assay, Red; fluorescence polarization); settings: ratio of IC50 relative to IC50 of 1α,25-dihydroxyvitamin D3
T1 construct: purchased Invitrogen Corporation
T1 sequence (P11473 1-427): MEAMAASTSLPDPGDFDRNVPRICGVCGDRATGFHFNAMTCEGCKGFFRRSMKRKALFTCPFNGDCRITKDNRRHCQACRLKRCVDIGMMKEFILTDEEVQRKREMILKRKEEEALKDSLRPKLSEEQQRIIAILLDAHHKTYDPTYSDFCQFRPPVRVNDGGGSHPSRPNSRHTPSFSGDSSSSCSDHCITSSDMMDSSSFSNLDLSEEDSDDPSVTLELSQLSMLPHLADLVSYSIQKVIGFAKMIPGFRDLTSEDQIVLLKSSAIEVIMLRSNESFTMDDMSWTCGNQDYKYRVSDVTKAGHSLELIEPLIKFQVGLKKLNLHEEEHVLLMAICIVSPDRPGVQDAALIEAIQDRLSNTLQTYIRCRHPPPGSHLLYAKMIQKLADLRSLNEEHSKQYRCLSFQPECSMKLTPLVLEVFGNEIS
Experimental: Binding Affinity to Human Vitamin D3 Receptor (VDR) This binding affinity was assessed by a VDR affinity measurement kit (Polarscreen™ Vitamin D Receptor Competitor assay, Red; Invitrogen Corporation). The compounds of the present invention or 1α,25-dihydroxyvitamin D3 at various concentrations in DTT-containing buffer (pH 7.5) were mixed with fluorescence-labeled VDR ligand-human VTR complex in DTT-containing buffer (pH 7.5). The degree of polarization of the resulting solution was measured after the incubation of the solution at room temperature. The polarization values were plotted against the concentration of the test compounds, IC50 (the concentration of the test compounds at which the polarized value is reduced to 50%) was determined.

human VDR = molecular target: T2, human VDR (Homo sapiens, UniProt P11473); experiment: Vitamin D3 receptor-antagonist activity: human osteocalcin promoter luciferase reporter in HOS cells transfected with human VDR and human RXR; type: cell-based; settings: for Antagonist specific activity against TEI-9647 (%): IC50 of test compound with respect to IC50 of TEI-9647 in each experiment; for IC50: luciferase activity in HOS cells, with 1α,25-dihydroxyvitamin D3 1×10^−8 M, 24 hours
T2 construct: expressed in transfected cells; host or cells: HOS cells (human osteosarcoma, ATCC), pcDNA3 expression vector, Lipofectamine 2000
T2 sequence (P11473 1-427): T1 sequence (P11473 1-427)
From the text: Vitamin D3 Receptor-Antagonist Activity in Terms of the Transcription Activity in Human Osteocalcin by 1α,25-dihydroxyvitamin D3 as a Marker
(1) A pGL3 vector (Promega Corp.) was used as a reporter vector. The promoter sequence of the human osteocalcin gene, which was obtained by a known method (Ozono et al., J. Biol. Chem., 265:21881-21888, 1990), was cloned from cDNA acquired from HOS cells (obtained from ATCC) and inserted into the upstream of the luciferase gene on the reporter vector. An expression vector was constructed by inserting a DNA sequence encoding human VDR and human RXR into a pcDNA3 vector (Invitrogen Corp). The HOS cells were incubated in a DMEM medium supplemented with 10% FBS at 37° C. in the presence of 5% CO2, and subcultivated every 2 or 3 days.
(2) Cells being subcultivated were collected by centrifugation and re-suspended in a serum and phenol red-free DMEM medium at 4×10^5 cells/mL. The re-suspension of cells was plated in a 96 well plate at 0.1 mL/well. In this system, various vectors described in (1) were added at 0.05 mL/well with Lipofectamin 2000 (Invitrogen Corp.). After the incubation for 3 hours at 37° C., 1α,25-dihydroxyvitamin D3 and the compounds of the present invention in various concentrations or TEI-9647 (note) as a control (the final concentration: 1×10^−8 M for 1α,25-dihydroxyvitamin D3, and 1×10^−6M and 1×10^−12M for the compounds of the present invention and TEI-9647) were added to each well. After incubation at 37° C. for 24 hours, the medium was removed, the cells were washed with PBS(−) once, and measured for the luciferase activity using a Dual Glo-Luciferase Assay kit (Promega Corp.) by luminometer (Berthold Corp.). The resulting luciferase values were plotted against the concentration of the test compounds and IC50 was determined as the concentration of the test compound at which the luciferase value was inhibited by 50%. Furthermore, to compare the intensities of activity among experiments, the IC50 value of the test compounds with respect to the IC50 value of […] in each experiment was calculated as the antagonist specific activity (%) against TEI-9647.

[2] = molecular target: T3, intracellular 1α,25-dihydroxyvitamin D3 receptor protein in chick intestinal mucous membrane (Gallus gallus, UniProt O42392); experiment: Binding affinity to intracellular vitamin D3 receptor (VDR) in chick intestinal mucous membrane, [3H]1α,25-dihydroxyvitamin D3 competition; settings: ratio of IC50 relative to IC50 of 1α,25-dihydroxyvitamin D3, 25° C., 1 hour
T3 construct: The intracellular 1α,25-dihydroxyvitamin D3 receptor protein in chick intestinal mucous membrane (0.2 mg); from tissue; host or cells: chick intestinal mucous membrane
T3 sequence (O42392 1-451): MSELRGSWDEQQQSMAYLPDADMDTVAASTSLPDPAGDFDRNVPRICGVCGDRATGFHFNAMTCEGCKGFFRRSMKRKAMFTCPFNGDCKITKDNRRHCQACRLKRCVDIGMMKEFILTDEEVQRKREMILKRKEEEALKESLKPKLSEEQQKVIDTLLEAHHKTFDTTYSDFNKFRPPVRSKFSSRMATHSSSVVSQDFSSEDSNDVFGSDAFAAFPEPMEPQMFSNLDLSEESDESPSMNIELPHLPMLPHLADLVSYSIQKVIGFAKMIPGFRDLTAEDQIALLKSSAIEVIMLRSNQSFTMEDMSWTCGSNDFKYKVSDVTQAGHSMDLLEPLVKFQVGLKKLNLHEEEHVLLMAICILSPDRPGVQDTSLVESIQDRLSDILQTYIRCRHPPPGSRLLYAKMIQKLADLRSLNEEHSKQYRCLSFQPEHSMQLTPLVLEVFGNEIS
Experimental: Binding Affinity to Intracellular Vitamin D3 Receptor (VDR) in Chick Intestinal Mucous Membrane
This binding affinity was assayed according to the method described by Ishizuka, et al. (Steroids, 37:33-43, 1982). Specifically, a solution of [26, 27-methyl-^3H]1α,25-dihydroxyvitamin D3 (15,000 dpm, 180 Ci/mmol) in ethanol (10 μL) and a solution of various concentrations of the compounds of the present invention in ethanol (40 μL) were added into a polypropylene tube (12×75 mm). The intracellular 1α,25-dihydroxyvitamin D3 receptor protein in chick intestinal mucous membrane (0.2 mg) and gelatin (1 mg) were dissolved in 1 mL of phosphate buffer (pH 7.4), the solution was added into the tube, and the mixture was allowed to react at 25° C. for 1 hour. To the tube, a 40% polyethylene glycol 6000 solution (1 mL) was added and the mixture was vigorously stirred. Then the tube was centrifuged at 2260×g at 4° C. for 60 minutes. The bottom of the tube containing precipitate was cut off by a cutter knife and was placed in a liquid scintillation vial, dioxane scintillator (10 mL) was added thereto and the radioactivity of the precipitate was measured by a liquid scintillation counter. The measured values were plotted against the concentration of the test compounds, and IC50 (the concentration of the test compounds at which binding to the receptor was inhibited by 50%) was determined. The ratios of the IC50 of the compounds of the present invention over the IC50 of 1α,25-dihydroxyvitamin D3 were calculated as the VDR affinity of the compounds of the present invention (%).

HL-60 cells = experiment: Vitamin D3 receptor-antagonist effect: inhibition of 1α,25-dihydroxyvitamin D3-induced differentiation of HL-60 (NBT reduction activity); type: cell-based; settings: Homo sapiens, 96 h; NBT-positive HL-60 cells, co-treatment with 1α,25-dihydroxyvitamin D3 1×10^−8 M, 4 days
From the text: Vitamin D3 Receptor-Antagonist Effect in Terms of Cellular Differentiation-Inducing Activity of 1α,25-dihydroxyvitamin D3 in HL-60 as a Marker
(1) A HL-60 cell line purchased from a cell bank (Japanese Cancer Research Resource Bank, Cell number: JCRB0085) was used. The cells were frozen for storage as a frozen storage stock to prevent cell characteristic changes due to successive cultivations. The cells were defrosted prior to the initiation of the experiment, and those which started successive culturing were used in the experiment. Cells subcultured for one month to a half year were used for the experiment. The successive culturing was carried out by diluting the cells at a ratio of about 1/100 (1-2×10^4 cells/mL) in a fresh medium after the collection of cells from a cell suspension by centrifugation. RPMI-1640 supplemented with 10% fetal bovine serum was used as the culture medium.
(2) The subcultured cells by the procedure described in (1) were collected by centrifugation and re-suspended in the medium at 5×10^3 cells/mL, and the cells were plated into a 24-well culture dish at 1 mL/well. To this system, a solution of 1α,25-dihydroxyvitamin D3 at a concentration of 1×10^−5 M and the compounds of the present invention in a range of […] to 3×10^−3 M in ethanol, respectively, were added at 1 μL per well (the final concentration: 1×10^−8 M for 1α,25-dihydroxyvitamin D3, and 1×10^−9 M to 3×10^−6 M for the compounds of the present invention). Ethanol was added at 1 μL per well as a control. After the plate was incubated at 37° C. for 4 days in the presence of 5% CO2, the cells were separated and collected by centrifugation.
(3) The induction of nitroblue tetrazolium (hereinafter NBT) reduction activity was used as a marker for cell differentiation-inducing activity of HL-60 cells. The measurement of NBT reduction activity was carried out according to the following procedure. Specifically, cells collected by centrifugation were re-suspended in a fresh medium. Then 0.1% of NBT and 12-O-tetradecanoylphorbor-13-acetate at a final concentration of 100 ng/mL were added to the cell suspension and the mixture was incubated at 37° C. for 25 minutes. Then the cytospin smears were prepared and stained with Kernechtrot after air-drying. The ratio of positive cells expressing NBT reduction activity was determined under optical microscopy. Percentage ratios of the ratio of NBT-positive cells in a simultaneous treatment with 1α,25-dihydroxyvitamin D3 (1×10^−8 M) and a compound of the present invention (1×10^−9M and 3×10^−6 M) over the ratio of the NBT-positive cells in a single treatment with 1α,25-dihydroxyvitamin D3 (1×10^−8 M) were plotted against the treating concentration of the compounds of the present invention. […]

| SMILES | VDR affinity (%) [1] | Antagonist specific activity against TEI-9647 (%) (human VDR) | IC50 (human VDR) | VDR affinity (%) [2] | IC50 (HL-60 cells) |
| --- | --- | --- | --- | --- | --- |
| C=C1/C(=C\C=C2/CCC[C@]3(C)[C@@H]([C@H](C)CC4CC(C)(O)C(=O)N4Cc4cc(OCC)cc(OCC)c4)CC[C@@H]23)C[C@@H](O)[C@H](C)[C@@H]1O (single isomer, unassigned) [Compound No. 41c, 2α-methyl-1α,25-dihydroxyvitamin D3-26,23-lactam-N-(3,5-diethoxybenzyl)] | 30% | 17.8% | 0.0527 µM |  |  |
| C=C1/C(=C\C=C2/CCC[C@]3(C)[C@@H]([C@H](C)CC4CC(C)(O)C(=O)N4CCc4ccccc4)CC[C@@H]23)C[C@@H](O)[C@H](C)[C@@H]1O (stereo partly drawn) [Compound No. 11a, 2α-methyl-1α,25-dihydroxyvitamin D3-26,23-lactam-N-(2-phenethyl)] |  | 90.5% | 0.0275 µM | 50% | 0.016 µM |
| C=C1/C(=C\C=C2/CCC[C@]3(C)[C@@H]([C@H](C)C[C@H]4C[C@](C)(O)C(=O)N4CCc4ccccc4)CC[C@@H]23)C[C@@H](O)[C@H](CCCO)[C@@H]1O [Compound No. 12a, 2α-(3-hydroxypropyl)-1α,25-dihydroxyvitamin D3-26,23-lactam-N-(2-phenethyl)] |  | 143.1% | 0.0174 µM | 222% | 0.01 µM |
| C=C1/C(=C\C=C2/CCC[C@]3(C)[C@@H]([C@H](C)CC4CC(C)(O)C(=O)N4CCc4ccccc4)CC[C@@H]23)C[C@@H](O)[C@H](CCCO)[C@@H]1O (stereo partly drawn) [Compound No. 12b, 2α-(3-hydroxypropyl)-1α,25-dihydroxyvitamin D3-26,23-lactam-N-(2-phenethyl)] |  |  |  |  | 0.17 µM |
| C=C1/C(=C\C=C2/CCC[C@]3(C)[C@@H]([C@H](C)C[C@H]4C[C@](C)(O)C(=O)N4CCc4ccccc4)CC[C@@H]23)C[C@@H](O)[C@H](OCCCO)[C@@H]1O [Compound No. 13a, 2α-(3-hydroxypropoxy)-1α,25-dihydroxyvitamin D3-26,23-lactam-N-(2-phenethyl)] |  | 29.9% | 0.0833 µM | 20% | 0.052 µM |
| C=C1/C(=C\C=C2/CCC[C@]3(C)[C@@H]([C@H](C)CC4CC(C)(O)C(=O)N4Cc4cc(OCC)cc(OCC)c4)CC[C@@H]23)C[C@@H](O)[C@H](C)[C@@H]1O (stereo partly drawn) [Compound No. 41a, 2α-methyl-1α,25-dihydroxyvitamin D3-26,23-lactam-N-(3,5-diethoxybenzyl)] | 31% |  |  |  |  |
| C=C1/C(=C\C=C2/CCC[C@@]3(C)C2CC[C@@H]3[C@H](C)CC2CC(C)(O)C(=O)N2Cc2cc(OCC)cc(OCC)c2)C[C@@H](O)[C@H](CCCO)[C@@H]1O (stereo partly drawn) [Compound No. 42c, 2α-(3-hydroxypropyl)-1α,25-dihydroxyvitamin D2-26,23-lactam-N-(3,5-diethoxybenzyl)] |  | 6.1% | 0.075 µM |  |  |
| C=C1/C(=C\C=C2/CCC[C@]3(C)[C@@H]([C@H](C)CC4CC(C)(O)C(=O)N4Cc4cc(OCC)cc(OCC)c4)CC[C@@H]23)C[C@@H](O)[C@H](OCCCO)[C@@H]1O (stereo partly drawn) [Compound No. 43c, 2α-(3-hydroxypropoxy)-1α,25-dihydroxyvitamin D3-26,23-lactam-N-(3,5-diethoxybenzyl)] |  | 9.8% | 0.0958 µM |  |  |
